Data: patent US9763444B2, “Compositions and methods for repelling blood-sucking and biting insects, ticks and mites” (The United States of America, as represented by the …, priority 2013, dated 2017)

Key:
An. albimanus = test: Minimum Effective Dosage (MED) test on treated cloth, mosquito repellency; format: in vivo, Anopheles albimanus; conditions: Table 4, highest concentration 1.500 mg/cm^2; for An. albimanus Minimum Effective Dosage, M4: subject M4; for An. albimanus Minimum Effective Dosage, M5: subject M5; for An. albimanus Minimum Effective Dosage, M8: subject M8; for An. albimanus Minimum Effective Dosage, M9: subject M9; for An. albimanus Minimum Effective Dosage, M10: subject M10
Ae. aegypti [1] = test: as above; format: in vivo, Aedes aegypti; conditions: for mosquito repellent activity against Ae. aegypti (in words): MED test on treated cloth; for Ae. aegypti Minimum Effective Dosage, M9: human subject M9; for Ae. aegypti Minimum Effective Dosage, M10: human subject M10; for Ae. aegypti Minimum Effective Dosage, Average: mean of 3 volunteers; for Ae. aegypti Minimum Effective Dosage, F1: human subject F1; for Ae. aegypti Minimum Effective Dosage, M1: human subject M1; for Ae. aegypti Minimum Effective Dosage, M2: human subject M2
Procedure: Bioassay for mosquito repellent activity: Repellency screening test for experimental chemicals were carried out to identify candidates that might be useful repellents. The repellent efficacy was compared to that of the standard repellent, DEET. Experimental compounds were assessed in one of two ways: (1) a range of concentration was evaluated to determine the minimum effective dosage (MED) which was the concentration threshold of where the repellent began to fail and allowed bites, or (2) a predetermined concentration of each repellent was applied to cloth and the activity was evaluated over several days (or in some cases months) (Katritzky, A. R., et al., Proc. Nat. Acad. Sci. (US), 105, 7359-7364 (2008); Katritzky, A. R., et al., Journal of Med. Entomol., 47: 924-938 (2010)). When conducting assays for repellency, a failure point was also predetermined for those measurements. Since experiments described herein used about 500 female mosquitoes per test, the failure point was set at 1% (equal to 5 bites) received during a test interval. From 3 to 5 volunteers participated in the screening of each set of chemicals.
Minimum Effective Dosage (MED) Test: The MED bioassays on treated cloth were a method of screening to determine the minimum amount of a repellent needed to prevent bites. Experimental compounds were prepared in solution by combining 0.15 g of experimental chemical with 2 mL of acetone in a 7.1 mL screwtop glass vial. This solution was then serially diluted to obtain nine concentrations when applied on to the cloth patch: 1.5, 0.75, 0.375, 0.187, 0.094, 0.047, 0.023, 0.011, and 0.006 mg/cm^2. The standard N,N-diethyl-3-methylbenzamide (DEET) was also tested at the same concentration levels to serve as a control and a comparison for relative repellency. A 50 cm^2 (5 cm×10 cm) patch of muslin cloth was rolled lengthwise and placed into each of the glass vials and scaled with a screwtop so it soaked up the solution. Just prior to the experiment, the pieces of treated cloth were removed from the vials, affixed to card stock tabs (5 cm×3 cm) with staples, and hung with masking tape on a rack to dry and allow acetone to evaporate. Volunteers wore a latex glove over their hands, a nylon stocking over their arm, and then wrapped a plastic Velcro-sealed sleeve over their entire forearm with a 32 cm^2 (4 cm×8 cm) window cut-out to allow mosquitoes to bite through. The nylon stocking acted as a barrier between the dried cloth and the skin, an additional precaution with experimental compounds. Dried cloth patches were stretched across the window in the plastic sleeve and held in place with masking tape. Volunteers placed their sleeve-covered arms into a screened cage for a one minute period with approximately 500 female Ae. aegypti mosquitoes that had been preselected for host-seeking behavior using a draw box (Posey, K. H., and C. E. Schreck, Mosquito News, 41: 566-568 (1981)). […] The MED recorded was the lowest passing concentration level tested for the experimental compound. […] All human volunteers in the study provided informed consent to participate of a protocol approved by the University of Florida Human Use Institutional Review Board (IRB #636-2005).

Ae. aegypti [2] = test: Complete Protection Time test on treated cloth (duration of protection); format: in vivo, Aedes aegypti; conditions: Dosage 0.75 mg/cm^2 on cloth
Procedure: Bioassay for mosquito repellent activity: Repellency screening test for experimental chemicals were carried out to identify candidates that might be useful repellents. The repellent efficacy was compared to that of the standard repellent, DEET. Experimental compounds were assessed in one of two ways: (1) a range of concentration was evaluated to determine the minimum effective dosage (MED) which was the concentration threshold of where the repellent began to fail and allowed bites, or (2) a predetermined concentration of each repellent was applied to cloth and the activity was evaluated over several days (or in some cases months) (Katritzky, A. R., et al., Proc. Nat. Acad. Sci. (US), 105, 7359-7364 (2008); Katritzky, A. R., et al., Journal of Med. Entomol., 47: 924-938 (2010)). When conducting assays for repellency, a failure point was also predetermined for those measurements. Since experiments described herein used about 500 female mosquitoes per test, the failure point was set at 1% (equal to 5 bites) received during a test interval. From 3 to 5 volunteers participated in the screening of each set of chemicals. Complete Protection Time Test: Complete protection time (CPT) on treated cloth is a method of screening that is used to determine the repellent duration for experimental chemicals that have not been examined for safe use on humans. The standard repellent DEET was used as a positive control as a benchmark by which to compare the repellents. Experimental compounds were prepared in solution by combining 0.075 g of experimental chemical with 1 mL of acetone in a 7.1-mL screwtop glass vial. The same concentration level of DEET was also prepared in this way to serve as a control and a comparison for relative repellency. A 50 cm^2 (5 cm×10 cm) patch of muslin cloth was rolled lengthwise and placed into each of the glass vials and sealed with a screwtop so it soaked up the solution. Just prior to the experiment, the pieces of treated cloth were removed from the vials, affixed to card stock tabs (5 cm×3 cm) with staples, and hung with masking tape on a rack to dry and allowed the volatile acetone to evaporate. Similar to the MED tests, volunteers wore a latex glove over their hands, a nylon stocking over their arm, and then wrapped a plastic Velcro-sealed sleeve over their entire forearm with a 32 cm^2 (4 cm×8 cm) window cut-out to allow mosquitoes to bite through. Dried cloth patches were stretched across the window in the plastic sleeve and held in place with masking tape. Volunteers placed their sleeve-covered arms into a screened cage for a one minute period with approximately 500 female Ae. aegypti mosquitoes that had been preselected for host-seeking behavior using a draw box. A cloth patch that received a 1% bite through level, equal to 5 mosquitoes that bit out of 500 mosquitoes, was considered a failure at that concentration. If 0-4 bites were received, then the treated cloth was still considered to be repellent at that concentration. The duration was recorded as the number of days an experimental chemical received a passing result, with day 0 being the day the sample was first dried. […] As with the tests conducted to determine CPT, volunteers in the study provided informed consent (IRB protocol #636-2005). The protocol was approved by the University of Florida Human Use Institutional Review Board.

[3] = Table 1 preliminary assay, human subject M4, highest concentration 1.500 mg/cm^2
[4] = Table 1 preliminary assay, human subject M5, highest concentration 1.500 mg/cm^2
[5] = Table 1 preliminary assay, human subject M8, highest concentration 1.500 mg/cm^2
[6] = Table 1 preliminary assay, highest concentration 1.500 mg/cm^2
[7] = Table 5, subject M4, highest dose 0.375 mg/cm2 (0.187 for 7)
[8] = Table 5, subject M5, highest dose 0.375 mg/cm2 (0.187 for 7)
[9] = Table 5, subject M8, highest dose 0.375 mg/cm2 (0.187 for 7)
[10] = Table 2, highest concentration 1.500 mg/cm^2

SMILES | mosquito repellent activity against Ae. aegypti (in words) (Ae. aegypti [1]) | Ae. aegypti Minimum Effective Dosage, M4 (Ae. aegypti [1]; [7]) | Ae. aegypti Minimum Effective Dosage, M5 (Ae. aegypti [1]; [8]) | Ae. aegypti Minimum Effective Dosage, M8 (Ae. aegypti [1]; [9]) | Ae. aegypti Minimum Effective Dosage, F1 (Ae. aegypti [1]; [10]) | Ae. aegypti Minimum Effective Dosage, M1 (Ae. aegypti [1]; [10]) | Ae. aegypti Minimum Effective Dosage, M2 (Ae. aegypti [1]; [10]) | other results
CC(=O)c1ccc2c(c1O)C=CC(C)(C)O2 [Compound 3] | least repellent |  |  |  |  |  |  | An. albimanus Minimum Effective Dosage, M4 (An. albimanus): 0.094 mg/cm^2; An. albimanus Minimum Effective Dosage, M5 (An. albimanus): >1.500 mg/cm^2; An. albimanus Minimum Effective Dosage, M8 (An. albimanus): >1.500 mg/cm^2; An. albimanus Minimum Effective Dosage, M9 (An. albimanus): 0.375 mg/cm^2; An. albimanus Minimum Effective Dosage, M10 (An. albimanus): >1.500 mg/cm^2; Ae. aegypti Minimum Effective Dosage, M4 (Ae. aegypti [1]; [3]): >1.500 mg/cm^2; Ae. aegypti Minimum Effective Dosage, M5 (Ae. aegypti [1]; [4]): 0.187 mg/cm^2; Ae. aegypti Minimum Effective Dosage, M8 (Ae. aegypti [1]; [5]): >1.500 mg/cm^2; Ae. aegypti Minimum Effective Dosage, M9 (Ae. aegypti [1]; [6]): >1.500 mg/cm^2; Ae. aegypti Minimum Effective Dosage, M10 (Ae. aegypti [1]; [6]): >1.500 mg/cm^2
COCCc1ccc2c(c1)C=CC(C)(C)O2 [Compound 19, 6-(2-methoxyethyl)-2,2-dimethyl-2H-chromene] | did not show any improvement of activity | >0.375 mg/cm^2 | >0.375 mg/cm^2 | >0.375 mg/cm^2 |  |  |  | 
COCc1cccc2c1C=CC(C)(C)O2 [Compound 18, 5-(methoxymethyl)-2,2-dimethyl-2H-chromene] | diminished repellent activity | 0.047 mg/cm^2 | 0.047 mg/cm^2 | 0.187 mg/cm^2 |  |  |  | Ae. aegypti Minimum Effective Dosage, Average (Ae. aegypti [1]; Table 5): 0.094 mg/cm^2
COC(=O)c1ccc(Cl)c2c1C=CC(C)(C)O2 [Compound 14, Methyl 8-chloro-2,2-dimethyl-2H-chromene-5-carboxylate] |  |  |  |  | >1.500 mg/cm^2 | >1.500 mg/cm^2 | >1.500 mg/cm^2 | 
COC(=O)c1cccc2c1C=CC(C)(C)O2 [Compound 6] | ineffective at the highest dosage tested | >0.375 mg/cm^2 | >0.375 mg/cm^2 | >0.375 mg/cm^2 |  |  |  | 
COC(=O)c1ccc2c(c1)OC(C)(C)C=C2 [Compound 8] | ineffective | >0.375 mg/cm^2 | >0.375 mg/cm^2 | >0.375 mg/cm^2 |  |  |  | 
CC1(C)C=Cc2cc(Cl)ccc2O1 [Compound 17] |  |  |  |  |  |  |  | Duration of protection, Proportion to DEET (Ae. aegypti [2]): 0.50; Duration of protection against Ae. aegypti, M-3 Days Protection (Ae. aegypti [2]; subject M-3): 1 days
COC(=O)c1ccc2c(c1)C=CC(C)(C)O2 [Compound 5] | mixed results |  |  |  |  |  |  | An. albimanus Minimum Effective Dosage, M4 (An. albimanus): 0.187 mg/cm^2; An. albimanus Minimum Effective Dosage, M5 (An. albimanus): 0.375 mg/cm^2; An. albimanus Minimum Effective Dosage, M8 (An. albimanus): >1.500 mg/cm^2; An. albimanus Minimum Effective Dosage, M9 (An. albimanus): 0.187 mg/cm^2; An. albimanus Minimum Effective Dosage, M10 (An. albimanus): 0.750 mg/cm^2; Ae. aegypti Minimum Effective Dosage, M4 (Ae. aegypti [1]; [3]): >1.500 mg/cm^2; Ae. aegypti Minimum Effective Dosage, M5 (Ae. aegypti [1]; [4]): 0.375 mg/cm^2; Ae. aegypti Minimum Effective Dosage, M8 (Ae. aegypti [1]; [5]): 0.187 mg/cm^2; Ae. aegypti Minimum Effective Dosage, M9 (Ae. aegypti [1]; [6]): 0.375 mg/cm^2; Ae. aegypti Minimum Effective Dosage, M10 (Ae. aegypti [1]; [6]): >1.500 mg/cm^2
CC1(C)C=Cc2ccc(Cl)cc2O1 [Compound 12] |  |  |  |  | 0.750 mg/cm^2 | 0.750 mg/cm^2 | 0.750 mg/cm^2 | Ae. aegypti Minimum Effective Dosage, Average (Ae. aegypti [1]; Table 2): 0.750 mg/cm^2
COC(=O)Cc1ccc2c(c1)C=CC(C)(C)O2 [Compound 10] |  | >0.375 mg/cm^2 | >0.375 mg/cm^2 | >0.375 mg/cm^2 | 0.375 mg/cm^2 | 0.750 mg/cm^2 | 0.375 mg/cm^2 | Ae. aegypti Minimum Effective Dosage, Average (Ae. aegypti [1]; Table 2): 0.500 mg/cm^2
COc1ccc(CO)c2c1C=CC(C)(C)O2 [Compound 4] | mixed results |  |  |  |  |  |  | An. albimanus Minimum Effective Dosage, M4 (An. albimanus): >1.500 mg/cm^2; An. albimanus Minimum Effective Dosage, M5 (An. albimanus): >1.500 mg/cm^2; An. albimanus Minimum Effective Dosage, M8 (An. albimanus): >1.500 mg/cm^2; An. albimanus Minimum Effective Dosage, M9 (An. albimanus): 0.750 mg/cm^2; An. albimanus Minimum Effective Dosage, M10 (An. albimanus): >1.500 mg/cm^2; Ae. aegypti Minimum Effective Dosage, M4 (Ae. aegypti [1]; [3]): >1.500 mg/cm^2; Ae. aegypti Minimum Effective Dosage, M5 (Ae. aegypti [1]; [4]): 0.375 mg/cm^2; Ae. aegypti Minimum Effective Dosage, M8 (Ae. aegypti [1]; [5]): 0.375 mg/cm^2; Ae. aegypti Minimum Effective Dosage, M9 (Ae. aegypti [1]; [6]): 0.750 mg/cm^2; Ae. aegypti Minimum Effective Dosage, M10 (Ae. aegypti [1]; [6]): >1.500 mg/cm^2
CC1(C)C=Cc2cccc(Cl)c2O1 [Compound 15] |  |  |  |  | 0.094 mg/cm^2 | 0.094 mg/cm^2 | 0.187 mg/cm^2 | Ae. aegypti Minimum Effective Dosage, Average (Ae. aegypti [1]; Table 2): 0.125 mg/cm^2
CC1(C)C=Cc2cc(CO)ccc2O1 [Compound 7] | ineffective | >0.187 mg/cm^2 | >0.187 mg/cm^2 | >0.187 mg/cm^2 |  |  |  | 
COC(=O)c1c(Cl)ccc2c1C=CC(C)(C)O2 [Compound 16] |  |  |  |  | >1.500 mg/cm^2 | >1.500 mg/cm^2 | >1.500 mg/cm^2 | 
